The values below come from patent publication US11896678B2, “Compositions and methods for treatment of peroxisome proliferator-activated receptor gamma (PPARG) activated cancer” (THE BROAD INSTITUTE, INC., priority 2017, dated 2024).

The subject of one data set is bladder cancer. Particulars: rodents; cited from earlier work.
Data set [1] deals with urinary bladder carcinogenesis. Particulars: rats; cited from earlier work.
The next data set relates to FABP4 expression. Nature of the data set: Immunoblot of FABP4 in bladder cancer cell lines. Particulars: panel of bladder cancer cell lines. Format: cell-based, human. As to the method:
Western Blot Analysis: Western blots were performed using standard protocols with semi-dry transfer Trans-Blot® SD (Bio-Rad Hercules, CA), Li-Cor Odyssey Blocking buffer, and imaging with LiCor Odyssey Imaging System (LI-COR Lincoln, NE). Briefly, cells were grown in 6-well plates and harvested using Complete Lysis-M with protease and phosphatase inhibitors (Roche Applied Science). Western blot analyses were performed using standard protocols with semi-dry transfer Trans-Blot SD (Bio-Rad), LI-COR Odyssey Blocking buffer, and imaging with LI-COR Odyssey Imaging System (LI-COR). The anti-PPARG C26H12, anti-PPARG 81B8, anti-FABP4 D25B3, and anti-CEACAM5 CB30 antibodies were obtained from Cell Signaling Technology. The anti-ACSL5 ab57210 and anti-HMCGS2 EPR8642 antibodies were obtained from Abcam. The anti-VCL (vinculin) V9264 antibody was obtained from Sigma-Aldrich. All primary antibodies were tested at 1:1,000 dilutions, with the exception of anti-VCL, which was tested at a 1:5,000 dilution. Secondary goat anti-mouse 926-68020, and goat-anti-rabbit 926-32211 antibodies were obtained from LI-COR Biosciences and used at 1:15,000 dilutions.
A general note: In western blotting, separated proteins are transferred to a membrane and probed.

For another data set, the system named is 5637 cells. Nature of the data set: Proliferation assay in PPARG-amplified 5637 cells. It counts as cell-based. Particulars: Homo sapiens; data not shown. As to the method:
To determine if treatment of PPARG-activated bladder cancer cell lines with PPARG modulators impacted viability, a variety of compounds were tested in proliferation assays.

The test system of a further data set is UM-UC-9 cells. Kind of data set: Direct cell counting dose-response proliferation assay. Format: cell-based, human. As to the method:
To determine whether PPARG modulators affect the proliferation and/or viability of PPARG-activated bladder cancer cell lines, a direct cell counting-based assay was performed. This assay likely avoids potential artifacts associated with the use of an ATP content-based assay, given that PPAR modulators are known to regulate cellular metabolic activity. […] These IC50 values align well with the calculated IC50s from both the cell-based reporter gene assay (FIG. 8A) and the biochemical corepressor assay (FIG. 8D).
(§1) Proliferation Assays: To enable cell-counting experiments, cell lines were transduced with a lentiviral vector encoding nuclear-targeted GFP, TagGFP2-H2B (Evrogen), and stable pools generated following selection for puromycin resistance. Cell lines were maintained for at least 7 days following selection prior to expansion and seeding into 96- or 384-well plates for further analysis. For kinetic proliferation assays, 96-well plates (n 1% 4 per condition) were imaged and counted every two hours using IncuCyte Zoom (Essen BioScience). Media and compounds were replaced approximately every 3-4 days. For endpoint assays to measure dose-response, cells were plated in 384-well plates, dosed with compound, and upon reaching approximately 70% to 90% confluence in control wells, cells were either counted using fluorescence imaging (Incu-Cyte Zoom) or incubated with CyQuant (Thermo Fisher) at the indicated time and plates were read with a fluorescent plate reader.

Data set [2] relates to PPARG-activated bladder cancer cell lines. Nature of the data set: Proliferation assays in PPARG-activated bladder cancer cell lines. It counts as cell-based, human. Particulars: 100 nM-500 nM. As to the method:
A panel of bladder cancer cell lines with PPARG modulators in colony formation assays was then tested (FIG. 10), kinetic proliferation assays (IncuCyte Zoom; Essen Bioscience) using cell lines treated with a single concentration of compound (100 nM-500 nM), and end-point dose-response assays (CellTiter Glo or CyQuant).
This assay was expanded to include an additional 8 representative bladder cancer cell lines, including cell lines with PPARG amplification, RXRA p.S427F mutation, activated gene signature, and control cell lines with low level expression of PPARG and target genes. […] Representative data for the UM-UC-9 cell line are shown in FIG. 6B, and is tabulated for the tested bladder cancer cell lines in Table 1. […] This significant (P<0.01) preferential sensitivity to PPARG inverse-agonists, but not antagonists, is maintained across all of the PPARG-activated cell lines in the panel, including the RXRA p.S427F cell line, HT-1197 (41), the PPARG-amplified cell lines, 5637 and UM-UC-9, and the PPARG activation gene signature cell lines Cal29, UM-UC-1, and RT112/84 (FIG. 12). […] Similar results were obtained with these cell lines in parallel studies using clonogenic assays to quantify colony-forming ability (FIG. 10).
as §1

Data set [3] relates to PPARG-activated pancreatic and colorectal cancer cell lines. Kind of data set: Kinetic proliferation assay in pancreatic and colorectal cancer cell lines. Format: cell-based. Particulars: 500 nM. From the text:
To enable cell-counting, cell lines were transduced with a lentiviral vector encoding nuclear-targeted GFP (TagGFP2-H2B), and stable pools generated following selection for puromycin-resistance. Cell lines were maintained for at least 7 days following selection prior to expansion and seeding into 96-well plates for further analysis. For kinetic proliferation assays, 96-well plates were imaged in phase-contrast and green fluorescence mode every two hours using IncuCyte Zoom (Essen BioScience, Ann Arbor MI). Using IncuCyte software, the number of fluorescent nuclei were counted to monitor quantitative changes in cell number over time. Media and compounds were replaced approximately every 3-4 days.
DMSO treatment was also included as a vehicle control.

In a further data set the target is T1, PPARA (Homo sapiens, UniProt Q07869).
T1 sequence (Q07869 1-468): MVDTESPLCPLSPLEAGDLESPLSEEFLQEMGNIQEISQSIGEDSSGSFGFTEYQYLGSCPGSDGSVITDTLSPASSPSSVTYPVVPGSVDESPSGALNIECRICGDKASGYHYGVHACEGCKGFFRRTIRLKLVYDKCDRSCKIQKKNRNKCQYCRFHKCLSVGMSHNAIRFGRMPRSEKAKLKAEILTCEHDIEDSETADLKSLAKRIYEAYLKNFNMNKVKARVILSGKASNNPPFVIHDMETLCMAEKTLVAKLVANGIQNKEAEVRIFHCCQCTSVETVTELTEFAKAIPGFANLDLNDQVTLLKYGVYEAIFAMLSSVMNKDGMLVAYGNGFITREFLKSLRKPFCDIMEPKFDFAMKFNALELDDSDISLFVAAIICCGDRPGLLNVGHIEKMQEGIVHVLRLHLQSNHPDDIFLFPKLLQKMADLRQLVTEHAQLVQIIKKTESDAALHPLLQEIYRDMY
Particulars: read-out: apparent Ki; cited from earlier work.

Another data set deals with DLBCL cells. Particulars: 1-15 uM; cited from earlier work.
The conditions of data set [4]: cited from earlier work.
The conditions of data set [5]: cited from earlier work. This is another data set of the same source.
The conditions of data set [6]: alone; cited from earlier work.
Data set [7] deals with Terbium-labeled PPARG ligand binding domain (PPARG-LBD) (Macaca mulatta (Rhesus macaque)) (UniProt O18924). Kind of data set: TR-FRET PPARG-NCOR1 interaction assay; with GW9662 (data not shown).
Data set [8] has the same target. Kind of data set: TR-FRET PPARG-NCOR1 interaction assay; with SR10221 (data not shown). Background: Time-resolved FRET reads energy transfer from a long-lived donor to a nearby acceptor.
For data set [9] the target is unchanged. Nature of the data set: TR-FRET PPARG-NCOR1 interaction assay; with T0070907 (data not shown).

Ends that are not written are not given here.

As to `CN(CCOc1ccc(CC2SC(=O)NC2=O)cc1)c1ccccn1` (stereo not shown) [rosiglitazone], the “carcinogenic effect, bladder cancer” value with bladder cancer was “not”. Besides, the “urinary bladder carcinogenesis compared with OH-BBN alone” value in data set [1] was “potentiate urinary bladder carcinogenesis”.

As for `O=C(Nc1ccncc1)c1cc([N+](=O)[O-])ccc1Cl` [T0070907, 2-Chloro-5-nitro-N-4-pyridinyl-benzamide], the “expression of FABP4” value in the data set with FABP4 expression was “able to reduce expression of FABP4”. For the same molecule, the IC50 in the data set on 5637 cells is 20 to 30 nM; in the data set on UM-UC-9 cells (Homo sapiens, UM-UC-9, read-out: calculated IC50, proliferation), 39 nM. For the same molecule, the “effect on cell proliferation compared with DMSO control” value with UM-UC-9 cells was “significantly reduced proliferation”. Besides, the “sensitivity of cell lines” value in data set [2] and in [3] was “preferentially sensitive” in each case. Also, the Ki on PPARA is around 850 nM. Moreover, in the data set with DLBCL cells, the “growth of DLBCL cells” value is given as “attenuate growth”.

Take `N.N.O=C([O-])C1(C(=O)[O-])CCC1.[Pt+2]` [Carboplatin, platinum, diammine [1,1-cyclobutane-dicarboxylato(2-)-0,0′]-(SP-4-2)]: the solubility in water entry in [4] is “approximately 14 mg/mL”. Moreover, in [5], the “pH of a 1% solution” value is 5-7. The oral bioavailability entry in data set [6] is reported as “approximately 4%”.

With DPASNLGLEDIIRKALMGSFDDK (also: fluorescently labeled, site not given here) [fluorescently labeled NCoR1 ID2 corepressor peptide (NCoR/NCOR1)], the fold induction of signal in [7] is 2.5 fold; in data set [8] it was below 2 fold; in data set [9], 6 to 8 fold.
